Here are results for one compound from patent US11001561B2, “Pyrimidinone derivatives as SHP2 antagonists” (MERCK PATENT GMBH, priority 2019, dated 2021).

The nature of data set [1]: Pharmacokinetics in mouse (oral / intravenous). The format is in vivo. Particulars: female CD1 mice. How it is done: Female CD1 mice (N=3) received a single oral (gavage) or a single intravenous (bolus) injection of compound. […] Consecutive blood samples were taken sub-lingually under isofluorane inhalation from animals after 0.083 (IV), 0.25, 0.5, 1, 2, 4, 6 and 24 h and were further processed to obtain plasma. Samples were protein precipitated and analysed by LC/MS/MS.

The subject of data set [2] is EBC-1 xenografts. In words: EBC-1 xenograft (cMET amplified non-small cell lung cancer). Conditions: CD-1 nude mice, 100 mg/kg daily oral gavage. The format is in vivo. From the text: CD-1 nude mice were inoculated with 5 million EBC-1 cells.
Data set [3] concerns Kyse-520 xenografts. Kind of data set: Kyse-520 xenograft (EGFR amplified esophageal cancer). Particulars: H2D Rag2 mice, 10, 30 or 100 mg/kg daily oral gavage. From the text:
H2D Rag2 mice were inoculated with 5 million KYSE-520 cells mixed with matrigel.
In vivo efficacy of compound 74a in an EGFR amplified setting was investigated in Kyse-520 xenografts. H2D Rag2 mice were inoculated with 5 million KYSE-520 cells mixed with matrigel.

Data set [4] has as its target Kv11.1 (hERG) ion channel (Homo sapiens (Human), UniProt Q12809). Kind of data set: hERG patch clamp in Kv11.1 transfected HEK293 cells. The format is cell-based. How it is done:
Inhibition of the ion channel hErg (or Kv11.1) current causes QT interval prolongation resulting in potentially fatal ventricular tachyarrhythmia called Torsade de Pointes.
hERG ion channel activity was assessed using a patch clamp technique in stable Kv11.1 (hERG) transfected human embryonic kidney cell line (HEK293). Whole cell recordings were carried out with an automated patch clamp device Patchliner™ from Nanion Technologies, Munich following manufacturer recommendation. Different concentrations of the test compound or reference, quinidine, were applied to whole cells suspension and current was measured using a pulse pattern with fixed amplitudes.

Data set [5] addresses Recombinant human SHP2 protein (2-593) (Homo sapiens (Human), UniProt Q06124). Kind of data set: SPR binding assay. The procedure: The immobilization buffer contained 20 mM HEPES/NaOH (pH 7.4), 150 mM NaCl, 0.05% Tween 20. Inhibitors (stored as 10 mM stock solutions in 100% DMSO) were diluted in running buffer (20 mM HEPES/NaOH pH 7.4, 150 mM NaCl, 1 mM DTT, 5 mM MgCl2 0.1 mM EGTA, 0.05% Tween 20, 2% DMSO @25° C.) and analysed with a Biacore 4000 (Biacore AB, GE Healthcare Life Sciences, Uppsala, Sweden) using a 2-fold dilution series. The highest compound concentration varied according to the expected dissociation constant, but all compounds were tested at 10 different concentrations. Interaction analysis cycles were run at 30 μL/min and consisted of a 140 s sample injection followed by 600 s of buffer flow (dissociation phase). All sensograms were evaluated by first subtracting the binding response recorded from the control surface (reference spot), followed by subtracting a buffer blank injection. To determine kinetic rate constants, data sets were fitted to a simple 1:1 interaction model including a term for mass transport using numerical integration and nonlinear curve fitting. Equilibrium analysis was performed by fitting the response at the end of the association phase to a single-site binding isotherm.

In data set [6] the target is auto-activated mutant protein SHP2 E76K (Homo sapiens (Human), UniProt Q06124, E76K). Kind of data set: SHP2 active mutant E76K biochemical assay with and without activating peptide.
Protocol: The inhibition of SHP2 by compounds of the invention was monitored using the surrogate substrate DiFMUP after protein activation by a peptide bearing two appropriately spaced phosphotyrosine. Full length SHP2 protein (Recombinant HumanSHP-2, E. coli derived Ser2Arg593, N-terminal 6His tag from R&D systems; 0.0.24 nM) was incubated with activating peptide, IRSI_2pY (New England Peptide, 140 nM) and DiFMUP (molecular probes, 80 uM) at RT in buffer (HEPES pH 7.2 60 mM, DDT 5 mM, KCl 75 mM, NaCl 75 mM, EDTA 1 mM, Tween 20 0.05%) in presence of compound (10 concentrations range, top concentration 50 μM) for 60 min. The generation of the DiFMU product by activated SHP2 was monitored through Fluorescence measurement with a PerkinElmer Envision reader. The inhibitor dose response curves were analyzed with Genedata Screener.
Data set [7] relates to pERK1/2 in KYSE520 cells. In words: p-Erk cellular assay in KYSE520 (Mesoscale). The format is cell-based. Particulars: Homo sapiens, KYSE-520, 2 h, read-out: pERK1/2 in Cell KYSE520 IC50. Put shortly:
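KYSE520 cells (30,000/well), plated overnight, were exposed to SHP2 inhibitors at several concentrations in duplicate for 2 h at 37° C. Lysates were analyzed for p-ERK/ERK on the Mesoscale platform.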

For data set [8], the system named is HPAF-2 xenografts. Conditions: CB17.SCID mice, 50 mg/kg 23B or 60 mg/kg RMC-4550 daily oral gavage.
The subject of data set [9] is MiaPaCa-2 xenografts. The format is in vivo, mouse. Conditions: H2D Rag2 mice, 50 or 100 mg/kg daily oral gavage. The source says:
H2D Rag2 mice were inoculated with 3 million MiaPaCa-2 cells.

Data set [10] concerns the target Full length SHP2 protein (Recombinant Human SHP-2) (Homo sapiens (Human), UniProt Q06124). Kind of data set: SHP2 biochemical assay (DiFMUP substrate, activating peptide IRSI_2pY).
Protocol: The inhibition of SHP2 by compounds of the invention was monitored using the surrogate substrate DiFMUP after protein activation by a peptide bearing two appropriately spaced phosphotyrosine. […] The generation of the DiFMU product by activated SHP2 was monitored through Fluorescence measurement with a PerkinElmer Envision reader. The inhibitor dose response curves were analyzed with Genedata Screener.
Data set [11] concerns U87-MG xenografts. In words: U87-MG xenograft (PTEN LOF glioblastoma). Conditions: CD-1 nude mice, 50 mg/kg daily oral gavage, FIG. 6. The format is in vivo, mouse. From the text:
CD-1 nude mice were inoculated with 10 million U87-MG cells.

Entries after “also recorded” stand apart in the source; their conditions may differ. Read-outs that look alike come from different tables or passages of the source.

Sequence of Full length SHP2 protein (Recombinant Human SHP-2) (Q06124 2-593): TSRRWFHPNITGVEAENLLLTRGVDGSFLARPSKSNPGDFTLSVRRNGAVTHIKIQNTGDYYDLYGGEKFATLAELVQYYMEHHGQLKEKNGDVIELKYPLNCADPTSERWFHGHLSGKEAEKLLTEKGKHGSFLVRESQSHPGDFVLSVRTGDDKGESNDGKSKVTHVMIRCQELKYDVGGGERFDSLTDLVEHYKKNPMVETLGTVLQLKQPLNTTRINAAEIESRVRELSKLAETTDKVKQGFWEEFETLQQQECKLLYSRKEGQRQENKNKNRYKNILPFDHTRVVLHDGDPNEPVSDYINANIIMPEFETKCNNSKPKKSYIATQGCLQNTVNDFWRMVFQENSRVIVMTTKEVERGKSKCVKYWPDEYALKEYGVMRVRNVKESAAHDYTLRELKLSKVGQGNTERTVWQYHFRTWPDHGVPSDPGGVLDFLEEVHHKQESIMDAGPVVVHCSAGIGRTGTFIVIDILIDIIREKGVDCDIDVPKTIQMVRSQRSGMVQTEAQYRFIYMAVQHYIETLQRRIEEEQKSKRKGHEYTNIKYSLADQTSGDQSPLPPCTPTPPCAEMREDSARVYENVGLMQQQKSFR
Sequence of auto-activated mutant protein SHP2 E76K (Q06124 whole entry E76K): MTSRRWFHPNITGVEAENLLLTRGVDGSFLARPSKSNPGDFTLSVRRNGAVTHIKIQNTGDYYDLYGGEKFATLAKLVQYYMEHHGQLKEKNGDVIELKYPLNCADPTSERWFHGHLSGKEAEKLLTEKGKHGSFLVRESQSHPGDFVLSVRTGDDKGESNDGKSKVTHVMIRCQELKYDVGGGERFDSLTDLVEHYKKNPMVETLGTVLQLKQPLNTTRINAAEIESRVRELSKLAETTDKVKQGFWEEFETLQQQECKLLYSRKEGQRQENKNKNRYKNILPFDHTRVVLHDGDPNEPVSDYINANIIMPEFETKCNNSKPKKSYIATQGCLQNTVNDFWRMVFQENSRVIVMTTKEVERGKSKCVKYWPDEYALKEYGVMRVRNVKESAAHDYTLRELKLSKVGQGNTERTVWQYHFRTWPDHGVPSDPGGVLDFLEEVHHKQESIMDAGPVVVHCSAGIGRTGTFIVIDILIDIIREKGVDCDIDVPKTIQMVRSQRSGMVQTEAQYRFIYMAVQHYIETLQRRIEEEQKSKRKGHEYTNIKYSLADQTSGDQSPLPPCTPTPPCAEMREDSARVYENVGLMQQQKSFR
Sequence of Recombinant human SHP2 protein (2-593) (Q06124 2-593): as the sequence (Q06124 2-593) above
Sequence of Kv11.1 (hERG) ion channel (Q12809 whole entry): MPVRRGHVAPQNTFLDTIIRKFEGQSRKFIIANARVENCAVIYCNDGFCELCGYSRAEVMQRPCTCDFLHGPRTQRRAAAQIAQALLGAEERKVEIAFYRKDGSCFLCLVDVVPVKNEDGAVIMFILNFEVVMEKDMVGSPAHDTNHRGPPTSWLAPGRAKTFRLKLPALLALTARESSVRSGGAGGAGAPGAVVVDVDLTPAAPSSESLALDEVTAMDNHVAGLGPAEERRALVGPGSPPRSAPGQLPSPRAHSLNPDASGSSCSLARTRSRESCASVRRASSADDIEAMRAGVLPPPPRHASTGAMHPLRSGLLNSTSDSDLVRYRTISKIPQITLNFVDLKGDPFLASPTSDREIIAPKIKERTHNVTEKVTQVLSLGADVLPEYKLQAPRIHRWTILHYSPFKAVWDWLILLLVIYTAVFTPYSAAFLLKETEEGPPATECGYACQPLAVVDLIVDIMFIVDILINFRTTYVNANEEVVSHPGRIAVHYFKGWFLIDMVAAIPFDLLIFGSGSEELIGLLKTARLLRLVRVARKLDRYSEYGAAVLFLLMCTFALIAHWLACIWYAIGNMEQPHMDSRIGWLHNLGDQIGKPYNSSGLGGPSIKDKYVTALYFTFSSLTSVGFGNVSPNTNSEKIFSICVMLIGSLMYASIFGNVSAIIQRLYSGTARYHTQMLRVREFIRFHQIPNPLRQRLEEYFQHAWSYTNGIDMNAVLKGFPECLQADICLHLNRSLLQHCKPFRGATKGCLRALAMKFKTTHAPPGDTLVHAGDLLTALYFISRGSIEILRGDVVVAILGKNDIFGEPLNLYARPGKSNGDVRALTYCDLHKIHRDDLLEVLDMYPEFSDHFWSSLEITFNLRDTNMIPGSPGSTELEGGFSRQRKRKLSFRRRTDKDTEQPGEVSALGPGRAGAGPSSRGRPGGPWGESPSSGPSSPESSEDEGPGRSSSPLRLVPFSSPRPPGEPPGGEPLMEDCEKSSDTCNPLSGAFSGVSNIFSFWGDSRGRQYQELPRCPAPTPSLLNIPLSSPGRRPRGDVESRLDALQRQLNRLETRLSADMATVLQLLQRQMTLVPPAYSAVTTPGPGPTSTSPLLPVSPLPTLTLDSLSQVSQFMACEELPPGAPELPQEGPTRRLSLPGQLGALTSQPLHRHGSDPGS

In turn, `Cc1c(N2CCC3(CC2)CO[C@@H](C)[C@H]3N)nc(C)n(-c2cccc(Cl)c2Cl)c1=O` (single isomer, unassigned) [Compound 23b] had a Fz in data set [1] of 100%. In [1] (mouse, plasma, intravenous), the clearance was 15.5 mL/min/kg. Moreover, in [1] (mouse, plasma, intravenous, read-out: Vd ss), the Vd came to 4.64 L/kg. For the same compound, the tolerability result in data set [2], in data set [3], in [8] and in data set [9] was “All doses were well tolerated” throughout. Moreover, the figures for the tumor growth inhibition result in [2] (FIG. 7) and in [3] (FIG. 2) were “reduces tumor growth; also recorded: Significant tumor growth inhibition” and “multiple dosage levels reduce growth of the tumor a significant amount; also recorded: dose-dependent significant tumor growth inhibition”, respectively. Also, the Ki in data set [4] is over 10000 nM. Moreover, the Kd in [5] was found to be 7.14 nM. Also, the IC50 in data set [6] (SHP-2 E76Z IC50 (nM) No peptide, without activating peptide) came to 21 nM; in [6] (with activating peptide IRSI_2pY 140 nM, read-out: SHP-2 E76Z IC50 (nM) peptide) it was 12 nM; in [7], 94 nM; in data set [10] (SHP-2 IC50 (nM) peptide, wild-type SHP-2, with activating peptide), 12 nM; in data set [10] (SHP-2 biochemical assay IC50 (μM), activating peptide IRSI_2pY 140 nM, DiFMUP, 60 min), 9 nM. The tumor inhibition result in data set [8] (FIG. 5) is listed as “Significant tumor inhibition”. Further, the “tumor growth / regression” value in [11] is given as “reduces tumor size as compared to baseline; also recorded: Tumor regression”.
